{"source": "patent US8952128B2", "about": "“Somatostatin-dopamine chimeric analogs” (priority 2012, dated 2015)", "note": "Bridge positions count the residues as written; N and C are the ends. Square brackets hold non-standard residues; d marks the D form. Peptide text beside a SMILES is read from it. * marks the point of attachment. X2 = CN1C[C@H](CSCC(=O)*)C[C@@H]2c3cccc4[nH]cc(c34)C[C@H]21; 4Pal = N[C@@H](Cc1ccncc1)C(=O)O"}
{"molecular_target": "hSSTR2 (Homo sapiens (Human), UniProt P30874)", "sequence (P30874 whole entry)": "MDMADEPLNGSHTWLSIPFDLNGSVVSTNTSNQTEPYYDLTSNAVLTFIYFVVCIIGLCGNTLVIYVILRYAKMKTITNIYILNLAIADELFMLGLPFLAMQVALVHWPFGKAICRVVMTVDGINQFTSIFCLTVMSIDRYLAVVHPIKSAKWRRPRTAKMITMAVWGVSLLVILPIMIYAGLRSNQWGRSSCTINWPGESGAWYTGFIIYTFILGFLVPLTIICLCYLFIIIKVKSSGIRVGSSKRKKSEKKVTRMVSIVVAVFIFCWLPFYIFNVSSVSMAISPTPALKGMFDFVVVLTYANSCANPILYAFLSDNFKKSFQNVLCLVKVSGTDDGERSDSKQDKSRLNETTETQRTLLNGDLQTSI", "experiment": "Intracellular calcium mobilization assay (FLIPR Calcium 4), hSSTR2;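 further: agonist activity read as intracellular calcium rise in cells expressing human SSTR2, loaded with a calcium-sensitive dye for 60 min at 37 °C, measured by FLIPR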", "type": "cell-based", "conditions": "Student's t-test, one-tailed, p <0.05"}
{"molecule": "C[C@@H](O)[C@@H]1NC(=O)[C@H](CCCCN)NC(=O)[C@@H](Cc2c[nH]c3ccccc23)NC(=O)[C@H](Cc2ccncc2)NC(=O)[C@H](Cc2ccccc2)NC(=O)[C@H](CCCNC(=N)N)NC(=O)[C@H](NCCSC[C@@H]2C[C@@H]3c4cccc5[nH]cc(c45)C[C@H]3N(C)C2)CCCCNC(=O)[C@H](Cc2ccccc2)NC1=O", "note": "[Compound 23, Dop1-psi(CH2NH)-cyclo(DLys-Arg-Phe-4Pal-DTrp-Lys-Thr-Phe)]", "improvement in EC50 over Reference Compound A": "statistically significant improvement"}
{"molecule": "C[C@@H](O)[C@@H]1NC(=O)[C@H](CCCCN)NC(=O)[C@@H](Cc2c[nH]c3ccccc23)NC(=O)[C@H](Cc2ccncc2)NC(=O)[C@H](Cc2ccccc2)NC(=O)[C@H](CCCNC(=N)N)NC(=O)[C@H](NC(=O)CSC[C@@H]2C[C@@H]3c4cccc5[nH]cc(c45)C[C@H]3N(C)C2)CCCCNC(=O)[C@H](Cc2ccc(O)cc2)NC1=O", "note": "[Compound 25, Dop1-cyclo(DLys-Arg-Phe-4Pal-DTrp-Lys-Thr-Tyr)] (X2-[dK]RF[4Pal][dW]KTY; lactam 1-C)", "improvement in EC50 over Reference Compound A": "statistically significant improvement"}
{"molecular_target": "hSSTR2 (Homo sapiens (Human), UniProt P30874)", "experiment": "Intracellular calcium mobilization assay (FLIPR Calcium 4), hSSTR2;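 further: agonist activity read as intracellular calcium rise in cells expressing human SSTR2, loaded with a calcium-sensitive dye for 60 min at 37 °C, measured by FLIPR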", "type": "cell-based", "conditions": "read-out: hSSTR2 % Emax ± SEM", "units": {"Emax": "%"}}
{"molecule": "C[C@@H](O)[C@@H]1NC(=O)[C@H](CCCCN)NC(=O)[C@@H](Cc2c[nH]c3ccccc23)NC(=O)[C@H](Cc2ccccc2)NC(=O)[C@H](Cc2ccccc2)NC(=O)[C@H](CCCNC(=N)N)NC(=O)[C@H](NCCCC[C@@H]2C[C@@H]3c4cccc5[nH]cc(c45)C[C@H]3N(C)C2)CCCCNC(=O)[C@H](Cc2ccc(F)cc2)NC1=O", "note": "[Compound 2, (D-6-methyl-8β-ergolinyl)-butanoyl-psi(CH2NH)-cyclo(DLys-Arg-Phe-Phe-DTrp-Lys-Thr-4FPhe)]", "Emax": "100 ± 1.7"}
{"molecule": "C[C@@H](O)[C@@H]1NC(=O)[C@H](CCCCN)NC(=O)[C@@H](Cc2c[nH]c3ccccc23)NC(=O)[C@H](Cc2ccccc2)NC(=O)[C@H](Cc2ccccc2)NC(=O)[C@H](CCCNC(=N)N)NC(=O)[C@H](NCCCCC[C@@H]2C[C@@H]3c4cccc5[nH]cc(c45)C[C@H]3N(C)C2)CCCCNC(=O)[C@H](Cc2ccc(F)cc2)NC1=O", "note": "[Compound 3, (D-6-methyl-8β-ergolinyl)-pentanoyl-psi(CH2NH)-cyclo(DLys-Arg-Phe-Phe-DTrp-Lys-Thr-4FPhe)]", "Emax": "98.8 ± 19.2"}
{"molecule": "C[C@@H](O)[C@@H]1NC(=O)[C@H](CCCCN)NC(=O)[C@@H](Cc2c[nH]c3ccccc23)NC(=O)[C@H](Cc2ccccc2)NC(=O)[C@H](Cc2ccccc2)NC(=O)[C@H](CCCNC(=N)N)NC(=O)[C@H](NCCSC[C@@H]2C[C@@H]3c4cccc5[nH]cc(c45)C[C@H]3N(C)C2)CCCCNC(=O)[C@H](Cc2ccc(F)c(F)c2)NC1=O", "note": "[Compound 6A, Dop1-psi(CH2NH)-cyclo(DLys-Arg-Phe-Phe-DTrp-Lys-Thr-3,4FPhe)]", "Emax": "99.5 ± 2.6"}
{"molecule": "C[C@@H](O)[C@@H]1NC(=O)[C@H](CCCCN)NC(=O)[C@@H](Cc2c[nH]c3ccccc23)NC(=O)[C@H](Cc2ccccc2)NC(=O)[C@H](Cc2ccccc2)NC(=O)[C@H](CCCNC(=N)N)NC(=O)[C@H](NCCSC[C@@H]2C[C@@H]3c4cccc5[nH]cc(c45)C[C@H]3N(C)C2)CCCCNC(=O)[C@H](Cc2cc(F)cc(F)c2)NC1=O", "note": "[Compound 6B, Dop1-psi(CH2NH)-cyclo(DLys-Arg-Phe-Phe-DTrp-Lys-Thr-3,5FPhe)]", "Emax": "95.2 ± 6.8"}
{"molecule": "C[C@@H](O)[C@@H]1NC(=O)[C@H](CCCCN)NC(=O)[C@@H](Cc2c[nH]c3ccccc23)NC(=O)[C@H](Cc2ccccc2)NC(=O)[C@H](Cc2ccccc2)NC(=O)[C@H](CCCNC(=N)N)NC(=O)[C@H](NCCSC[C@@H]2C[C@@H]3c4cccc5[nH]cc(c45)C[C@H]3N(C)C2)CCCCNC(=O)[C@H](Cc2cccc(F)c2)NC1=O", "note": "[Compound 6C, Dop1-psi(CH2NH)-cyclo(DLys-Arg-Phe-Phe-DTrp-Lys-Thr-3FPhe)]", "Emax": "97.7 ± 6.9"}
{"molecule": "C[C@@H](O)[C@@H]1NC(=O)[C@H](CCCCN)NC(=O)[C@@H](Cc2c[nH]c3ccccc23)NC(=O)[C@H](Cc2ccccc2)NC(=O)[C@H](Cc2ccccc2)NC(=O)[C@H](CCCNC(=N)N)NC(=O)[C@H](NCCSC[C@@H]2C[C@@H]3c4cccc5[nH]cc(c45)C[C@H]3N(C)C2)CCCCNC(=O)[C@H](Cc2ccccc2F)NC1=O", "note": "[Compound 6D, Dop1-psi(CH2NH)-cyclo(DLys-Arg-Phe-Phe-DTrp-Lys-Thr-2FPhe)]", "Emax": "96.9 ± 8.7"}
{"molecule": "C[C@@H](O)[C@@H]1NC(=O)[C@H](CCCCN)NC(=O)[C@@H](Cc2c[nH]c3ccccc23)NC(=O)[C@H](Cc2ccccc2)NC(=O)[C@H](Cc2ccccc2)NC(=O)[C@H](CCCNC(=N)N)NC(=O)[C@H](NCCSC[C@@H]2C[C@@H]3c4cccc5[nH]cc(c45)C[C@H]3N(C)C2)CCCCNC(=O)[C@H](Cc2c(F)c(F)c(F)c(F)c2F)NC1=O", "note": "[Compound 6E, Dop1-psi(CH2NH)-cyclo(DLys-Arg-Phe-Phe-DTrp-Lys-Thr-2,3,4,5,6FPhe)]", "Emax": "90.4 ± 6.8"}
{"molecule": "C[C@@H](O)[C@@H]1NC(=O)[C@H](CCCCN)NC(=O)[C@@H](Cc2c[nH]c3ccccc23)NC(=O)[C@H](Cc2ccccc2)NC(=O)[C@H](Cc2ccccc2)NC(=O)[C@H](CCCNC(=N)N)NC(=O)[C@H](NC[C@H](Cc2ccc(O)cc2)NC(=O)C[S+]([O-])C[C@@H]2C[C@@H]3c4cccc5[nH]cc(c45)C[C@H]3N(C)C2)CCCCNC(=O)[C@H](Cc2ccc(F)cc2)NC1=O", "note": "(stereo partly drawn) [Compound 13, Dop1(SO)-Tyr-psi(CH2NH)-cyclo(DLys-Arg-Phe-Phe-DTrp-Lys-Thr-4FPhe)]", "Emax": "100 ± 0.7"}
{"molecule": "C[C@@H](O)[C@@H]1NC(=O)[C@H](CCCCN)NC(=O)[C@@H](Cc2c[nH]c3ccccc23)NC(=O)[C@H](Cc2ccccc2)NC(=O)[C@H](Cc2ccccc2)NC(=O)[C@H](CCCNC(=N)N)NC(=O)[C@H](NCC[S+]([O-])C[C@@H]2C[C@@H]3c4cccc5[nH]cc(c45)C[C@H]3N(C)C2)CCCCNC(=O)[C@H](Cc2ccc(F)cc2)NC1=O", "note": "(stereo partly drawn) [Compound 14, Dop1(SO)-psi(CH2NH)-cyclo(DLys-Arg-Phe-Phe-DTrp-Lys-Thr-4FPhe)]", "Emax": "102 ± 2.2"}
{"molecule": "C[C@@H](O)[C@@H]1NC(=O)[C@H](CCCCN)NC(=O)[C@@H](Cc2c[nH]c3ccccc23)NC(=O)[C@H](Cc2ccncc2)NC(=O)[C@H](Cc2ccccc2)NC(=O)[C@H](CCCNC(=N)N)NC(=O)[C@H](NC[C@H](Cc2ccc(O)cc2)NC(=O)C[S+]([O-])C[C@@H]2C[C@@H]3c4cccc5[nH]cc(c45)C[C@H]3N(C)C2)CCCCNC(=O)[C@H](Cc2ccccc2)NC1=O", "note": "(stereo partly drawn) [Compound 15, Dop1(SO)-Tyr-psi(CH2NH)-cyclo(DLys-Arg-Phe-4Pal-DTrp-Lys-Thr-Phe)]", "Emax": "99.9 ± 1.9"}
{"molecule": "C[C@@H](O)[C@@H]1NC(=O)[C@H](CCCCN)NC(=O)[C@@H](Cc2c[nH]c3ccccc23)NC(=O)[C@H](Cc2ccncc2)NC(=O)[C@H](Cc2ccccc2)NC(=O)[C@H](CCCNC(=N)N)NC(=O)[C@H](NC[C@H](CCCCNC(=O)C[S+]([O-])C[C@@H]2C[C@@H]3c4cccc5[nH]cc(c45)C[C@H]3N(C)C2)NC(=O)C[S+]([O-])C[C@@H]2C[C@@H]3c4cccc5[nH]cc(c45)C[C@H]3N(C)C2)CCCCNC(=O)[C@H](Cc2ccc(O)cc2)NC1=O", "note": "(stereo partly drawn) [Compound 16, Dop1(SO)-Lys[Dop1(SO)]-psi(CH2NH)-cyclo(DLys-Arg-Phe-4Pal-DTrp-Lys-Thr-Tyr)]", "Emax": "103 ± 2.3"}
{"molecule": "C[C@@H](O)[C@@H]1NC(=O)[C@H](CCCCN)NC(=O)[C@@H](Cc2c[nH]c3ccccc23)NC(=O)[C@H](Cc2ccncc2)NC(=O)[C@H](Cc2ccccc2)NC(=O)[C@H](CCCNC(=N)N)NC(=O)[C@H](NC[C@H](CCCCNC(=O)C[S+]([O-])C[C@@H]2C[C@@H]3c4cccc5[nH]cc(c45)C[C@H]3N(C)C2)NC(=O)C[S+]([O-])C[C@@H]2C[C@@H]3c4cccc5[nH]cc(c45)C[C@H]3N(C)C2)CCCCNC(=O)[C@H](Cc2ccccc2)NC1=O", "note": "(stereo partly drawn) [Compound 17, Dop1(SO)-Lys[Dop1(SO)]-psi(CH2NH)-cyclo(DLys-Arg-Phe-4Pal-DTrp-Lys-Thr-Phe)]", "Emax": "105 ± 4.2"}
{"molecule": "C[C@@H](O)[C@@H]1NC(=O)[C@H](CCCCN)NC(=O)[C@@H](Cc2c[nH]c3ccccc23)NC(=O)[C@H](Cc2ccccc2)NC(=O)[C@H](Cc2ccccc2)NC(=O)[C@H](CCCNC(=N)N)NC(=O)[C@H](NC[C@H](Cc2ccc(O)cc2)NC(=O)CS(=O)(=O)C[C@@H]2C[C@@H]3c4cccc5[nH]cc(c45)C[C@H]3N(C)C2)CCCCNC(=O)[C@H](Cc2ccc(F)cc2)NC1=O", "note": "[Compound 19, Dop1(SO2)-Tyr-psi(CH2NH)-cyclo(DLys-Arg-Phe-Phe-DTrp-Lys-Thr-4FPhe)]", "Emax": "99.5 ± 1.8"}
{"molecule": "C[C@@H](O)[C@@H]1NC(=O)[C@H](CCCCN)NC(=O)[C@@H](Cc2c[nH]c3ccccc23)NC(=O)[C@H](Cc2ccncc2)NC(=O)[C@H](Cc2ccccc2)NC(=O)[C@H](CCCNC(=N)N)NC(=O)[C@H](NC[C@H](Cc2ccc(O)cc2)NC(=O)CS(=O)(=O)C[C@@H]2C[C@@H]3c4cccc5[nH]cc(c45)C[C@H]3N(C)C2)CCCCNC(=O)[C@H](Cc2ccccc2)NC1=O", "note": "[Compound 21, Dop1(SO2)-Tyr-psi(CH2NH)-cyclo(DLys-Arg-Phe-4Pal-DTrp-Lys-Thr-Phe)]", "Emax": "100 ± 1.8"}
{"molecule": "CC(=O)N(CCCNC[C@@H]1C[C@@H]2c3cccc4[nH]cc(c34)C[C@H]2N(C)C1)[C@@H]1CCCCNC(=O)[C@H](Cc2ccc(F)cc2)NC(=O)[C@H]([C@@H](C)O)NC(=O)[C@H](CCCCN)NC(=O)[C@@H](Cc2c[nH]c3ccccc23)NC(=O)[C@H](Cc2ccccc2)NC(=O)[C@H](Cc2ccccc2)NC(=O)[C@H](CCCNC(=N)N)NC1=O", "note": "[Compound 22, 3-[N-(D-6-methyl-8β-ergolinylmethyl)]-aminopropionyl-psi(CH2NAc)-cyclo(DLys-Arg-Phe-Phe-DTrp-Lys-Thr-4FPhe)]", "Emax": "99.1 ± 12.6"}
{"molecule": "C[C@@H](O)[C@@H]1NC(=O)[C@H](CCCCN)NC(=O)[C@@H](Cc2c[nH]c3ccccc23)NC(=O)[C@H](Cc2ccncc2)NC(=O)[C@H](Cc2ccccc2)NC(=O)[C@H](CCCNC(=N)N)NC(=O)[C@H](NCCSC[C@@H]2C[C@@H]3c4cccc5[nH]cc(c45)C[C@H]3N(C)C2)CCCCNC(=O)[C@H](Cc2ccccc2)NC1=O", "note": "[Compound 23, Dop1-psi(CH2NH)-cyclo(DLys-Arg-Phe-4Pal-DTrp-Lys-Thr-Phe)]", "Emax": "95.4 ± 3.3"}
{"molecule": "C[C@@H](O)[C@@H]1NC(=O)[C@H](CCCCN)NC(=O)[C@@H](Cc2c[nH]c3ccccc23)NC(=O)[C@H](Cc2ccncc2)NC(=O)[C@H](Cc2ccccc2)NC(=O)[C@H](CCCNC(=N)N)NC(=O)[C@H](NC(=O)CSC[C@@H]2C[C@@H]3c4cccc5[nH]cc(c45)C[C@H]3N(C)C2)CCCCNC(=O)[C@H](Cc2ccc(O)cc2)NC1=O", "note": "[Compound 25, Dop1-cyclo(DLys-Arg-Phe-4Pal-DTrp-Lys-Thr-Tyr)] (X2-[dK]RF[4Pal][dW]KTY; lactam 1-C)", "Emax": "93.9 ± 6.7"}
{"molecule": "C[C@@H](O)[C@@H]1NC(=O)[C@H](CCCCN)NC(=O)[C@@H](Cc2c[nH]c3ccccc23)NC(=O)[C@H](Cc2ccccc2)NC(=O)[C@H](Cc2ccccc2)NC(=O)[C@H](CCCNC(=N)N)NC(=O)[C@H](NCCSC[C@@H]2C[C@@H]3c4cccc5[nH]cc(c45)C[C@H]3N(C)C2)CCCCNC(=O)[C@H](Cc2ccccc2)NC1=O", "note": "[Compound 26, Dop1-psi(CH2NH)-cyclo(DLys-Arg-Phe-Phe-DTrp-Lys-Thr-Phe)]", "Emax": "90.2 ± 12.6"}
